Values of other authors as cited in patent US10933035B2, “Antimicrobial silicone-based wound dressings” (Covalon Technologies Inc., priority 2010, dated 2021).

Settings: 20° C.

[H]/N=C(\N/C(=N/[H])NCCCCCCNC(=N)NC(=N)Nc1ccc(Cl)cc1)Nc1ccc(Cl)cc1 [Chlorhexidine]
Solubility in water: 0.008 % wt/vol
